Tests used:
MDA-MB-231 cells = test: MTT cell viability assay; type: cell-based; settings: 10 μM
Method: (§1) MDA-MB-468 and MDA-MB-436 cells were cultured in Leibovitz’s L-15 medium supplemented with 10% fetal bovine serum. […] All of the cells were cultured at 37 °C in a humidified atmosphere containing 5% CO2.
(§2) Cancer cells were seeded in a density in 96-well plates (2 × 10^3 cells per well). After incubation for 24 h, cancer cells were treated with compounds (0–20 μM) for 72 h.

MDA-MB-468 cells = test: MTT cell viability assay; type: cell-based; settings: 10 μM
Method: as §1, §2

ERK2 = ERK2 (Homo sapiens, UniProt P28482); test: ADP-Glo kinase assay; type: biochemical; settings: 500 nM
Method: (§3) The full-length human ERK1 or ERK2 with His-tag was cloned into a pET28a vector. hERK1/2 were expressed in Escherichia coli BL21(DE3), and then were purified using sequential Ni-NTA and Superdex 200 column steps. The SEC purified sample was then concentrated to 10 mg/ml and stored at −80 °C with buffer containing 20 mM HEPES pH 7.5, 150 mM NaCl. ERK5 (residues 48–395) containing His and GST tags was cloned into the pFastBac vector, and the recombinant plasmid was extracted. The recombinant plasmid was transformed into the DH10bac strain, and monoclonal was selected for culture. The recombinant Bacmid was then extracted according to the instructions of the Baculovirus Shuttle Vector Bacmid Mini Preparation Kit (Beyotime) and validated by PCR. 1 × 10^6/well Sf9 cells were counted for transfection and then amplified to obtain P3 ERK5 recombinant baculovirus. It was added to 2 × 10^6/mL Sf9 cells and incubated at 27 °C for 72 h on a shaker to express ERK5. Cells were lysed and supernatant was collected on a Ni-NTA for purification, and a 250 mM imidazole eluate was collected. Next, digestion by TEV protease was performed overnight while dialysis was performed in approximately 1000 mL of imidazole-free buffer. The digested ERK5 protein was sequentially purified on the Ni-NTA and GST-tag Purification Resin, followed by size exclusion chromatography on a Superdex 75 column. ERK5 protein was collected and concentrated to 12 mg/ml and stored at −80 °C in buffer containing 50 mM HEPES pH 8.0, 200 mM NaCl, 10% (v/v) glycerol.
(§4) ERK1/2/5 kinase activity assay was conducted using ADP-Glo™ Kinase Assay. 2× ATP solution and 2× kinase & Metal solution were prepared using assay buffer were prepared using assay buffer containing 50 mM Hepes pH 7.5, 10 mM MgCl2; 0.01% Brij35, 1 mM EGTA, 2 mM DTT. Transfer 40 nL compounds to 384 assay plate. Add 2 μL of 2× kinase & Metal solution were mixed and incubated in a 384-assay plate for 10 min at 25 °C. 2 μL of 2×ATP solution was added and incubated at 25 °C for 60 min. And then, each well was supplemented with 4 µL of ADP-Glo^TM reagent and incubated at 25 °C for 40 min. Subsequently, 8 µL of Kinase Detection Reagent was added and incubated at 25 °C for 40 min. Finally, the luminescence signals were recorded. The IC50 values were calculated using GraphPad Prism 9.5 software.

ERK1 = ERK1 (Homo sapiens, UniProt P27361); test: ADP-Glo kinase assay; type: biochemical; settings: 500 nM
Method: as §3, §4

ERK5 = ERK5 (Homo sapiens, UniProt Q13164); test: ADP-Glo kinase assay; type: biochemical; settings: 500 nM
Method: as §3, §4

Chain of ERK1 (P27361 whole entry): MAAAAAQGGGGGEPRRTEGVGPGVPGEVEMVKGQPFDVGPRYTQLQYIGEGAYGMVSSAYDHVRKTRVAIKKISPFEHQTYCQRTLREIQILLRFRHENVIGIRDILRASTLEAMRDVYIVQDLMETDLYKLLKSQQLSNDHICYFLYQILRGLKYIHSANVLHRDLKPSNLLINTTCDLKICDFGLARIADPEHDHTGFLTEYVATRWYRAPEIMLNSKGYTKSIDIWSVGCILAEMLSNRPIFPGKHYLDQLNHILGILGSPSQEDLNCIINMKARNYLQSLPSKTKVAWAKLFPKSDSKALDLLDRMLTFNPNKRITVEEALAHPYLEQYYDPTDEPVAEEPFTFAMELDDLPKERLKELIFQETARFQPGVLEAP
Chain of ERK2 (P28482 whole entry, the tested form may be a part): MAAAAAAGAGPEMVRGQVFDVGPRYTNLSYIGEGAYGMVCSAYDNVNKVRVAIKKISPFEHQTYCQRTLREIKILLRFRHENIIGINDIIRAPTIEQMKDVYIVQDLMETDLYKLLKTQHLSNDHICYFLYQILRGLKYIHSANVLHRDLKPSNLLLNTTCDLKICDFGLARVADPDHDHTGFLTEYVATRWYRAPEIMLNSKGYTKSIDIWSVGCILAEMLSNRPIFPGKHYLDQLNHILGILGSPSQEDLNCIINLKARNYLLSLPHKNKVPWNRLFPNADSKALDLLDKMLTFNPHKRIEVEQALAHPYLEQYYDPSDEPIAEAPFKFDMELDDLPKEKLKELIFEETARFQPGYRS
Chain of ERK5 (Q13164 whole entry): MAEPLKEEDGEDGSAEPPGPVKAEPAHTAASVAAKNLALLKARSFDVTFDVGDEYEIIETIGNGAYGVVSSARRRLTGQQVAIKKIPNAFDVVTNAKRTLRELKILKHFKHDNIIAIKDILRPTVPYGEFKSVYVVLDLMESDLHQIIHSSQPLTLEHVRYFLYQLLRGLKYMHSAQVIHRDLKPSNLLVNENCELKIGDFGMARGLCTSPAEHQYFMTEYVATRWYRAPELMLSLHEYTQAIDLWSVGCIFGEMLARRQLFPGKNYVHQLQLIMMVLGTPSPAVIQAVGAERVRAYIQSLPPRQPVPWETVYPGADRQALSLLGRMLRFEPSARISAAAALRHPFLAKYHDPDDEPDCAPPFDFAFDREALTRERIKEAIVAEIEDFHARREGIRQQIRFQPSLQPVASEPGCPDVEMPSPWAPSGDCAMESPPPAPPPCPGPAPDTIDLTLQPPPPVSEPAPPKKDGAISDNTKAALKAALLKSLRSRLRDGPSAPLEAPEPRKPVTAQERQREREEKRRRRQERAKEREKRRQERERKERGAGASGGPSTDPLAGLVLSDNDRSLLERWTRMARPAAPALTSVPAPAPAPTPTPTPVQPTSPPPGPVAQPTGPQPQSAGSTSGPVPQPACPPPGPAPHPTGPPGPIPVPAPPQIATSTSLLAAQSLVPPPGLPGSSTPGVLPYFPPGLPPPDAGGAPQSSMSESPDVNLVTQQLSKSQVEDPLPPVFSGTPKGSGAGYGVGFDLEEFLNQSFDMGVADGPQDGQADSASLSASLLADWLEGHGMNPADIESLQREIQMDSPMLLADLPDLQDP

SMILES	Enzyme inhibitory activity (500 nM, %) ERK2 (ERK2) [%]	Enzyme inhibitory activity (500 nM, %) ERK1 (ERK1) [%]	Enzyme inhibitory activity (500 nM, %) ERK5 (ERK5) [%]	Anti-proliferative activity (10 μM, %) MDA-MB-231 (MDA-MB-231 cells) [%]	Anti-proliferative activity (10 μM, %) MDA-MB-468 (MDA-MB-468 cells) [%]
Cc1cccc(NC(=O)c2cc(-c3nc(Nc4ccnn4C)ncc3Cl)cs2)c1 [6q]	82.11 ±0.61	80.23 ± 0.68	65.90 ± 3.12	29.43 ± 3.25	33.20± 0.44
CCc1cccc(NC(=O)c2cc(-c3nc(Nc4ccnn4C)ncc3Cl)cs2)c1 [6r]	89.45 ± 1.55	88.34 ± 1.78	67.34 ± 3.20	15.53 ± 0.90	30.21 ± 1.11
Cn1nccc1Nc1ncc(Cl)c(-c2csc(C(=O)Nc3ccc(C(F)(F)F)cc3)c2)n1 [6y]	51.08 ±2.31	50.78 ± 0.89	23.21 ± 3.45	8.87 ± 1.11	9.83 ± 0.93

Continued, in another order:

Enzyme inhibitory activity (500 nM, %) ERK2 (ERK2) [%]	Enzyme inhibitory activity (500 nM, %) ERK1 (ERK1) [%]	Enzyme inhibitory activity (500 nM, %) ERK5 (ERK5) [%]	SMILES	Anti-proliferative activity (10 μM, %) MDA-MB-231 (MDA-MB-231 cells) [%]	Anti-proliferative activity (10 μM, %) MDA-MB-468 (MDA-MB-468 cells) [%]
45.57 ± 0.34	41.09 ± 1.05	21.12 ± 2.34	COc1ccc(NC(=O)c2cc(-c3nc(Nc4ccn(C)n4)ncc3Cl)cs2)cc1 [9a]	1.23 ± 1.20	8.70 ± 3.21
43.22 ± 0.23	45.29 ± 1.30	23.12 ± 3.21	COc1ccc(NC(=O)c2cc(-c3nc(Nc4c(C)nn(C)c4C)ncc3Cl)cs2)cc1 [9d, 4-(5-chloro-2-((1,3,5-trimethyl-1H-pyrazol-4-yl)amino)pyrimidin-4-yl)-N-(4-methoxyphenyl)thio-phene-2-carboxamide]	7.54 ± 1.23	24.33 ± 0.84
76.45 ± 0.01	77.32 ± 2.34	45.32 ± 0.09	COc1ccc(NC(=O)c2cc(-c3nc(Nc4ccccc4)ncc3Cl)cs2)cc1 [9e]	23.33 ± 0.56	25.10 ± 1.53
78.90 ± 2.31	77.02 ± 3.21	65.54 ± 0.88	COc1ccc(NC(=O)c2cc(-c3nc(Nc4cccc(N(C)C)c4)ncc3Cl)cs2)cc1 [9h]	11.21 ± 0.47	20.15 ± 0.77
-1.29 ± 0.02	2.13 ± 1.56	71.14 ± 0.43	CN(C)Cc1cccc(Nc2ncc(Cl)c(-c3csc(C(=O)Nc4ccncn4)c3)n2)c1 [18i]	41.35 ± 1.20	30.29 ± 0.83

— PMC11842588, “A first-in-class selective inhibitor of ERK1/2 and ERK5 overcomes drug resistance with a single-molecule strategy” (Signal Transduction and Targeted Therapy, 2025)
